Where two headings read alike, the source gives them in different places.
Assays:
Assay type in all cases: cell-based
[1] = tested on: Human mPB CD34+ cells; assay: Cell viability by flow cytometry in the presence of propidium iodide
Protocol: (§1) No change in culture cell density was seen after VPA addition compared to controls in genome modified mPB HSPCs (FIG. 6F).
(§2) Human mPB CD34+ cells were cultured ex vivo in CC110 media with or without 100 ng/mL IL-6 in the presence of VPA (1.25 mM or 2.5 mM) and 5 mM lithium chloride (Li) for 4 (blue lines—added at 4 days post thawing of the cells) or 7 days (red line—added at 1 day post thawing).

[2] = tested on: Human mPB CD34+ cells; assay: Flow cytometry of HSPC multipotency markers (CD34, CD133, CD90, CD49f, CD166, CD38, CD45RA); details: for CD90 expression (FIG. 3A): dmPGE2 10 μM, SR1 1 μM, 17 days, addition 1 day post thawing; for CD49f expression (FIG. 3C) / CD133 expression (FIG. 3B): compared to controls, 17 day culture; for CD34 expression compared to controls (FIG. 3D): for the duration of the experiment (17 days); for CD90 expression (percent of CD90+ cells, FIG. 2A): nicotinamide 2.5 mM, TEPA 5 μM, addition at 1 day post thawing, vs control
Protocol: Human mPB CD34+ cells were cultured ex vivo in CC110 media for 3 days with or without VPA, nicotinamide or TEPA. Various cell surface markers are enriched on CD34+ subpopulations that contain true LT-HSCs. Measurement of such cell surface markers can therefore be used as a proxy for the number of LT-HSCs in the culture. In particular, CD90, CD133, CD49f, CD38, and CD166 can be used to assay LT-HSC number (Notta et al. (2011) Science 333(6039):218-21; Chitteti et al. (2014) Blood 124(4):519-29), with the LT-HSCs generally residing in the CD90+CD133+CD49f+CD38-low CD166+ pool. Accordingly, cells were stained using fluorescently-tagged antibodies against the HSPC multipotency markers CD34 (PE-Cy7), CD133 (PE), CD90 (APC), and CD49f (PerCP) and analyzed by flow cytometry.
Human mPB CD34+ cells were cultured ex vivo in CC110 media for 17 days. Cells were then stained using fluorescently-tagged antibodies against the HSPC multipotency markers CD34 (PE-Cy7), CD133 (PE), CD90 (APC), and CD49f (PerCP) and analyzed by flow cytometry as described above.
Human mPB-derived cells were cultured as described above in the presence or absence of VPA (1.25 mM) and 5 mM lithium chloride (Li) and cells assayed for primitive cell surface markers as described above.
CD34+ cells were cultured ex vivo in CC110 media with 100 ng/mL IL-6 for 8 days in the presence or absence of VPA, lithium, nucleases and donors. VPA and Li were added prior to nucleases and/or donors (which can be added in any order). Briefly, CD34+ cells were thawed and cultured for approximately […] before addition of VPA and Li and cultured again (e.g., 1-2 days) before addition of a donor. Nucleases (e.g., ZFN mRNA) were added 0.5 to 1 day later and VPA/Li washed out at the same time. After at least a day, cells were then stained using fluorescently-tagged antibodies against the HSPC multipotency markers CD34 (PE-Cy7), CD133 (PE), CD90 (APC), and CD49f (PerCP) and analyzed by flow cytometry.
CD34+ cells were cultured ex vivo in CC110 media as described above for approximately 6 days in the presence or absence of VPA, lithium, nucleases and donors. VPA and Li were added after to nucleases and/or donors (which can be added in any order). Briefly, CD34+ cells were thawed and cultured for approximately 2-3 days before addition of a donor. Nucleases (e.g., ZFN mRNA) were added 0.5 to 1 day after transfection with the donor. The donor was a SA-IL2RG partial corrective cDNA transgene at IL2RG intron 1 and the zinc-finger nucleases (ZFN) were SBS #s 44271/44298 delivered by BTX electroporation. VPA/Li was added 1 day after addition of the ZFN mRNA. After approximately 3 days, cells were then stained using fluorescently-tagged antibodies against the HSPC multipotency markers CD34 (PE-Cy7), CD133 (PE), CD90 (APC), and CD49f (PerCP) and analyzed by flow cytometry.
as §2
The presence of IL-6 was capable of enhancing the expression of CD49f with extended culture. […] In a further experiment, human mPB CD34+ cells were cultured ex vivo in CC110 media in the presence of VPA (1.25 mM) plus LiCl (5 mM) with or without 100 ng/mL IL-6 for 7 days.
After 7 days in culture cells were stained using fluorescently-tagged antibodies against the HSPC multipotency marker CD166 (PE) and analyzed by flow cytometry. VPA+Li increased the overall fraction of CD166+ cells.
Human mPB CD34+ cells were cultured ex vivo in CC110 media with 100 ng/mL IL-6 in the presence or absence of VPA (1.25 mM) plus LiCl (5 mM) for 6 days.

[3] = tested on: Human mPB CD34+ cells; assay: Cell density / proliferative capacity in culture; details: for cell density / growth (FIG. 3F): extended culture, 17 days
From the text: as §1
The presence of IL-6 was capable of enhancing the expression of CD49f with extended culture. […]

[4] = tested on: Human mPB CD34+ cells; assay: Methylcellulose assays (colony forming units) on CD34+ cell cultures
[5] = tested on: CD34+ cells; assay: CRISPR/Cas nuclease modification with VPA (as Example 3, CRISPR/Cas in place of ZFNs); details: introduced before, concurrently and/or after the CRISPR/Cas nuclease systems
Protocol: Experiments are conducted as described in Example 3 using CRISPR/Cas nucleases in place of ZFNs (e.g., specific for any gene such as IL2, HPRT, etc.), with and without donors.

[6] = 14 days of in vitro differentiation
[7] = VPA 1.25 mM added 1 day post thawing
[8] = compared to controls after 14 days of in vitro differentiation

With `CC(C)n1cnc2c(NCCc3ccc(O)cc3)nc(-c3csc4ccccc34)nc21` [SR1, StemRegenin 1] the “cell viability (FIG. 3E)” value [1] was “no effect on cell viability”, the “CD90 expression (FIG. 3A)” value ([2]; VPA 1.25 mM, CC110 media) was “No effect” and the “CD49f expression (FIG. 3C)” value [2] was “increased expression compared to both controls and VPA after 17 days in culture”. The “CD133 expression (FIG. 3B)” value [2] was “decreased expression”, the “CD34 expression compared to VPA (FIG. 3D)” value ([2]; extended culture) was “higher expression” and the “CD34 expression compared to controls (FIG. 3D)” value [2] was “retained elevated CD34 expression”. For the same compound, the “cell density / growth (FIG. 3F)” value [3] was “slight growth advantage”, the “erythroid burst-forming units (BFU-E)” value [4, 6] was “increased” and the “granulocyte and megakaryocyte colony-forming units (CFU-GM)” value [4, 6] was “increased”.
In the case of `NCCNCCNCCNCCN` [TEPA, tetraethylenepentamine], the “CD90 expression (percent of CD90+ cells, FIG. 2A)” value ([2]; VPA 1.25 mM) is reported as “No effect”.
For `CCCC(CCC)C(=O)O` [VPA, valproic acid], the “cell viability (FIG. 3E)” value [1] was “no loss of cell viability”, the “cell viability after VPA addition compared to controls (FIG. 6E)” value [1] was “no increased loss of cell viability” and the “overall cell viability with VPA” value [1] was “slightly lower viability”. The “recovery of cell viability following VPA administration” value [1] was “initial delay in recovery”, the “viability after VPA addition, before genome modification (FIG. 5E)” value [1] was “no decrease in viability” and the “viability after genome modification (FIG. 5E)” value [1] was “significant viability loss”. For the same compound, the “viability after genome modification (FIG. 6E)” value [1] was “significant loss of viability”, the “level of CD90 expression, VPA added at day 1 vs day 4” value [2] was “higher level” and the “marker expression after VPA washout and genome modification” value ([2]; Example 3C) was “retained high CD90, CD34, CD133 and CD49f expression”. For the same compound, the “CD49f expression compared to controls” value ([2]; VPA 1.25 mM + LiCl 5 mM, 7 days) was “increased”, the “time to peak of CD90 expression after addition (FIG. 2A)” value [2, 7] was no more than 2 days and the “time to peak of CD90 expression after addition (FIG. 3A)” value [2, 7] was no more than 2 days. For the same compound, the “CD90 expression (FIG. 3A)” value ([2]; VPA 1.25 mM, CC110 media) was “dramatically increased”, the “CD90 expression (percent of CD90+ cells, FIG. 2A)” value ([2]; VPA 1.25 mM) was “dramatically increased” and the “fraction of CD34+CD133+CD90+CD49f+ cells” value ([2]; VPA 1.25 mM, CC110 media, 3 days, controls 14.4%) was 85.9%. For the same compound, the “proportion of CD34+CD133+ cells” value ([2]; VPA 1.25 mM, CC110 media, 3 days, controls 51.7%) was 93.1%, the “level of CD133, CD90 and CD49f expression, VPA added at day 1 vs day 4” value ([2]; VPA + 5 mM Li) was “higher level” and the “marker expression after VPA washout and genome modification” value ([2]; addition after extended culture (Example 3B)) was “retained high CD90, CD34, CD133 and CD49f expression”. For the same compound, the “CD49f expression (FIG. 3C)” value [2] was “increased CD49f expression for up to 15 days”, the “CD133 expression (FIG. 3B)” value [2] was “increased” and the “fraction of cells unresponsive to VPA stimulation between days 1 and 4 post thawing (CD133, CD90 and CD49f expression)” value ([2]; day 1 vs day 4 addition) was roughly 15%. For the same compound, the “fraction of cells unresponsive to VPA stimulation between days 1 and 4 post thawing, CD49f” value ([2]; day 1 vs day 4 addition) was roughly 15%, the “fraction of cells unresponsive to VPA stimulation between days 1 and 4 post thawing, CD90” value ([2]; day 1 vs day 4 addition) was roughly 20% and the “fraction of cells unresponsive to VPA stimulation between days 1 and 4 post thawing, CD133” value ([2]; day 1 vs day 4 addition) was roughly 15%. The “CD34 expression, VPA added at day 1 vs day 4 post-thawing” value ([2]; extended culture) was “increased CD34 expression”, the “CD34 expression compared to controls (FIG. 3D)” value [2] was “retained elevated CD34 expression” and the “dose dependence of CD49f expression” value ([2]; increasing VPA) was “No significant dose dependence”. The “dose dependence of CD90 expression” value ([2]; increasing VPA) was “dose dependence”, the “dose dependence of CD34 expression” value ([2]; increasing VPA doses (1.25 mM, 2.5 mM)) was “slight dose dependence” and the “cell growth, VPA at day 4 compared to day 1” value [3] was “cell growth advantage”. For the same compound, the “cell growth potential at 2.5 mM VPA” value ([3]; 2.5 mM VPA) was “decreased cell growth potential”, the initial proliferative capacity ([3]; Example 6, VPA administration) was “slightly decreased proliferative capacity” and the “proliferative capacity after 7 days in culture” value ([3]; Example 6, VPA administration) was “recovered”. The “culture cell density (FIG. 6F)” value ([3]; after VPA addition compared to controls, genome modified mPB HSPCs) was “No change”, the “cell density / growth (FIG. 3F)” value [3] was “slightly decreased proliferative capacity” and the “cell growth at lower doses of VPA” value ([3]; lower doses than 2.5 mM) was “did not affect cell growth as substantially”. The “myeloid or erythroid differentiation capacity (FIG. 2C)” value [4, 8] was “no significant difference”, the “myeloid or erythroid differentiation capacity (FIGS. 3G and 3H)” value [4, 8] was “no significant difference” and the “CRISPR/Cas induced nuclease modification” value [5] was “enhances”.
`CCCCC(C)(C)[C@H](O)/C=C/[C@H]1[C@H](O)CC(=O)[C@@H]1C/C=C\CCCC(=O)O` [dmPGE2, 16,16-dimethyl Prostaglandin E2] was tested, and the “cell viability (FIG. 3E)” value ([1]; extended culture, 17 days) was “no effect on cell viability”, the “CD90 expression (FIG. 3A)” value ([2]; VPA 1.25 mM, CC110 media) was “No effect” and the “cell density / growth (FIG. 3F)” value [3] was “slight growth advantage”.
For `NC(=O)c1cccnc1` [nicotinamide], the “CD90 expression (percent of CD90+ cells, FIG. 2A)” value ([2]; VPA 1.25 mM) was “No effect”.
“IL-6: cytokine added to CC110 media at 100 ng/mL” was tested, and the “VPA-increased HSC multipotency marker expression in the presence of IL-6” value ([2]; 100 ng/mL IL-6) was “enhanced”, the “expression of CD49f in the presence of IL-6” value ([2]; 100 ng/mL IL-6, extended culture with VPA+Li) was “enhancing” and the “overall cell density with or without IL-6” value ([3]; 100 ng/mL IL-6, VPA+Li cultures) was “higher overall cell density in the absence of IL-6”.

Source: US9816074B2, “Methods and compositions for modulating nuclease-mediated genome engineering in hematopoietic stem cells” (Sangamo BioSciences, Inc., priority 2014, dated 2017)
